Experimental data as given in patent publication US20040067507A1, “Liver inflammation predictive genes” (priority 2002, published 2004).
Read-outs that look alike come from different tables or passages of the source.

Test system: Sprague Dawley rats Crl:CD
Assay type: in vivo, rat
Description: In addition to the database described and utilized herein, other toxicology gene expression databases may be generated, and used to identify additional liver toxicity biomarkers, which may also be employed in the practice of the liver inflammation prediction methods of the invention. […] An example of compounds, dose levels, liver toxicity classifications and histopathology scores used in the Examples which follow are provided in Table 1. The compounds and dose levels are abbreviated in the Abbreviation Column. The Inflammation Score relates the histopathology liver inflammation, a score of “2” or higher indicates histopathology of increasing severity.
Identification of Correlating Genes: For the purpose of identifying candidate predictive genes, the database preferably includes histopathology scores for each animal which has been exposed to one or more agent(s). […] The scores are numerical scores that reflect the occurrence and severity of histopathological changes. These scores can be adjusted to have similar range to gene expression changes. […] Because the scores are numerical, they are suitable for use with a variety of statistical correlation and similarity measures.
Sprague Dawley rats Crl:CD from Charles River, Raleigh, N.C. were divided into treated rats that receive a specific concentration of the compound (see Table 1) and the control rats that only received the vehicle in which the compound is mixed (e.g., saline).
At specified timepoints (6 h, 24 h and 72 h) after administration (intraperitoneal route) of the compound, a set number of rats (usually 3 control and 3 treated) were euthanized and tissues collected. Each rat was heavily sedated with an overdose of CO2 by inhalation and a maximum amount of blood drawn. Exsanguination of the rat by this drawing of blood kills the rat. The method of collecting the tissues is very important and ensures preserving the quality of the mRNA in the tissues. The body of the rat was then opened up and prosectors rapidly removed the tissues (including liver) and immediately placed them into liquid nitrogen. […] The organs/tissues were then packaged into well-labeled plastic freezer quality bags and stored at −80 degrees until needed for isolation of the mRNA from a portion of the organ/tissue sample.
Correlation with Histopathology Scores: Histopathology scores for each animal (assigned on a compound-dose basis as indicated in Table 1) were entered with gene expression data by using the GeneSpring™ ‘Drawn Gene’ function. Correlations between inflammation histopathology scores and gene expression were conducted with the distance measures listed below: […]

[1] = 20 mg/kg i.p., 72 h, 1=no histopathology, 2 or higher=increasing severity
[2] = 75 mg/kg i.p., 72 h, 1=no histopathology, 2 or higher=increasing severity
[3] = 15 mgkg i.p., 72 h, 1=no histopathology, 2 or higher=increasing severity
[4] = 60 mgkg i.p., 72 h, 1=no histopathology, 2 or higher=increasing severity
[5] = 13 mg/kg i.p., 72 h, 1=no histopathology, 2 or higher=increasing severity
[6] = 50 mg/kg i.p., 72 h, 1=no histopathology, 2 or higher=increasing severity
[7] = Sprague Dawley Crl:CD, rat, in vivo
[8] = 5 mg/kg i.p., 72 h, 1=no histopathology, 2 or higher=increasing severity
[9] = Sprague Dawley Crl:CD, rat, in vivo, ip
[10] = 30 mg/kg i.p., 72 h, 1=no histopathology, 2 or higher=increasing severity
[11] = 0.2 ml/kg i.p., 72 h, 1=no histopathology, 2 or higher=increasing severity
[12] = 0.8 ml/kg i.p., 72 h, 1=no histopathology, 2 or higher=increasing severity
[13] = 14 mg/kg i.p., 72 h, 1=no histopathology, 2 or higher=increasing severity
[14] = 1 mg/kg i.p., 72 h, 1=no histopathology, 2 or higher=increasing severity
[15] = 2 mg/kg i.p., 72 h, 1=no histopathology, 2 or higher=increasing severity
[16] = 4 mg/kg i.p., 72 h, 1=no histopathology, 2 or higher=increasing severity
[17] = 0.25 ml/kg i.p., 72 h, 1=no histopathology, 2 or higher=increasing severity
[18] = 1 ml/kg i.p., 72 h, 1=no histopathology, 2 or higher=increasing severity
[19] = 16 mg/kg i.p., 72 h, 1=no histopathology, 2 or higher=increasing severity
[20] = 8 mg/kg i.p., 72 h, 1=no histopathology, 2 or higher=increasing severity
[21] = 2.5 mg/kg i.p., 72 h, 1=no histopathology, 2 or higher=increasing severity
[22] = 10 mg/kg i.p., 72 h, 1=no histopathology, 2 or higher=increasing severity
[23] = 250 mg/kg i.p., 72 h, 1=no histopathology, 2 or higher=increasing severity

CN(N=O)C(=O)N[C@H]1C(O)O[C@H](CO)[C@@H](O)[C@@H]1O (mixture of isomers) [streptozotocin]
Liver Inflammation (20 mg/kg i.p., 72 h): no | Liver Necrosis (20 mg/kg i.p., 72 h): no | Inflamm. Score [1]: 1 | Necr. Score [1]: 1 | Liver Inflammation (75 mg/kg i.p., 72 h): no | Liver Necrosis (75 mg/kg i.p., 72 h): no | Inflamm. Score [2]: 1 | Necr. Score [2]: 1

S=C=Nc1cccc2ccccc12 [1-naphthylisothiocyanate]
Liver Necrosis (15 mgkg i.p., 72 h): no | Inflamm. Score [3]: 1 | Necr. Score [3]: 1 | Liver Necrosis (60 mgkg i.p., 72 h): yes | Inflamm. Score [4]: 2 | Necr. Score [4]: 2

O=c1[nH]cc(F)c(=O)[nH]1 [5-fluorouracil]
Liver Inflammation (13 mg/kg i.p., 72 h): no | Liver Necrosis (13 mg/kg i.p., 72 h): no | Inflamm. Score [5]: 1 | Necr. Score [5]: 1 | Liver Inflammation (50 mg/kg i.p., 72 h): no | Liver Necrosis (50 mg/kg i.p., 72 h): no | Inflamm. Score [6]: 1 | Necr. Score [6]: 1

CC(=O)Nc1ccc(O)cc1 [acetaminophen]
Inflamm. Score [7]: 1 | Liver Inflammation (rat, in vivo): no

COc1cc2c(c3oc(=O)c4c(c13)CCC4=O)[C@@H]1C=CO[C@@H]1O2 [aflatoxin]
Inflamm. Score (rat, in vivo): 4 | Liver Inflammation (rat, in vivo): yes | Liver Necrosis (rat, in vivo): yes | Necr. Score (rat, in vivo): 8

C[C@@H]1[C@H](O)[C@@H](C)/C=C/C=C/C=C/C=C/C=C/C=C/C=C/[C@H](O[C@@H]2O[C@H](C)[C@@H](O)[C@H](N)[C@@H]2O)C[C@@H]2O[C@](O)(C[C@@H](O)C[C@@H](O)[C@H](O)CC[C@@H](O)C[C@@H](O)CC(=O)O[C@H]1C)C[C@H](O)[C@H]2C(=O)O [amphotericin B]
Liver Inflammation (5 mg/kg i.p., 72 h): no | Liver Necrosis (5 mg/kg i.p., 72 h): no | Inflamm. Score [8]: 1 | Necr. Score [8]: 1 | Liver Inflammation (20 mg/kg i.p., 72 h): no | Liver Necrosis (20 mg/kg i.p., 72 h): no | Inflamm. Score [1]: 1 | Necr. Score [1]: 1

Cn1cnc([N+](=O)[O-])c1Sc1ncnc2nc[nH]c12 [azathioprine]
Inflamm. Score [7]: 1 | Necr. Score [7]: 1 | Liver Inflammation (rat, in vivo): no | Liver Necrosis (rat, in vivo): no

c1ccccc1 [benzene]
Inflamm. Score [9]: 1 | Necr. Score [9]: 1 | Liver Inflammation (rat, in vivo, ip): no | Liver Necrosis (rat, in vivo, ip): no

c1ccc2c(c1)cc1ccc3cccc4ccc2c1c34 [benzo[a]pyrene]
Liver Inflammation (30 mg/kg i.p., 72 h): no | Liver Necrosis (30 mg/kg i.p., 72 h): no | Inflamm. Score [10]: 1 | Necr. Score [10]: 1

Brc1ccccc1 [bromobenzene]
Liver Inflammation (0.2 ml/kg i.p., 72 h): yes | Liver Necrosis (0.2 ml/kg i.p., 72 h): yes | Inflamm. Score [11]: 2 | Necr. Score [11]: 2 | Liver Inflammation (0.8 ml/kg i.p., 72 h): yes | Liver Necrosis (0.8 ml/kg i.p., 72 h): yes | Inflamm. Score [12]: 3 | Necr. Score [12]: 4

CS(=O)(=O)OCCCCOS(C)(=O)=O [busulfan]
Liver Inflammation (14 mg/kg i.p., 72 h): no | Liver Necrosis (14 mg/kg i.p., 72 h): no | Inflamm. Score [13]: 1 | Necr. Score [13]: 1

[Cl][Cd][Cl] [cadmium chloride]
Liver Inflammation (1 mg/kg i.p., 72 h): no | Liver Necrosis (1 mg/kg i.p., 72 h): no | Inflamm. Score [14]: 1 | Necr. Score [14]: 1 | Liver Inflammation (2 mg/kg i.p., 72 h): no | Liver Necrosis (2 mg/kg i.p., 72 h): no | Inflamm. Score [15]: 1 | Necr. Score [15]: 1 | Liver Inflammation (4 mg/kg i.p., 72 h): yes | Liver Necrosis (4 mg/kg i.p., 72 h): yes | Inflamm. Score [16]: 2 | Necr. Score [16]: 3

ClC(Cl)(Cl)Cl [carbon tetrachloride]
Liver Inflammation (0.25 ml/kg i.p., 72 h): no | Liver Necrosis (0.25 ml/kg i.p., 72 h): yes | Inflamm. Score [17]: 1 | Necr. Score [17]: 3 | Liver Inflammation (1 ml/kg i.p., 72 h): yes | Liver Necrosis (1 ml/kg i.p., 72 h): yes | Inflamm. Score [18]: 3 | Necr. Score [18]: 6 | liver necrosis or necrosis with inflammation (high dose): produced liver necrosis or necrosis with inflammation | liver necrosis or necrosis with inflammation (low dose): not at the low dose

O=NN(CCCl)C(=O)NCCCl [carmustine]
Liver Inflammation (16 mg/kg i.p., 72 h): no | Liver Necrosis (16 mg/kg i.p., 72 h): no | Inflamm. Score [19]: 1 | Necr. Score [19]: 1

ClC(Cl)Cl [chloroform]
Inflamm. Score [9]: 1 | Necr. Score [9]: 1 | Liver Inflammation (rat, in vivo, ip): no | Liver Necrosis (rat, in vivo, ip): no

CN(C)CCCN1c2ccccc2Sc2ccc(Cl)cc21 [chlorpromazine]
Liver Inflammation (8 mg/kg i.p., 72 h): no | Liver Necrosis (8 mg/kg i.p., 72 h): no | Inflamm. Score [20]: 1 | Necr. Score [20]: 1 | Liver Inflammation (30 mg/kg i.p., 72 h): no | Liver Necrosis (30 mg/kg i.p., 72 h): no | Inflamm. Score [10]: 1 | Necr. Score [10]: 1

N.N.[Cl][Pt][Cl] [cisplatin]
Liver Inflammation (2.5 mg/kg i.p., 72 h): no | Liver Necrosis (2.5 mg/kg i.p., 72 h): no | Inflamm. Score [21]: 1 | Necr. Score [21]: 1 | Liver Inflammation (10 mg/kg i.p., 72 h): no | Liver Necrosis (10 mg/kg i.p., 72 h): no | Inflamm. Score [22]: 1 | Necr. Score [22]: 1

CCOC(=O)C(C)(C)Oc1ccc(Cl)cc1 [clofibrate]
Liver Inflammation (75 mg/kg i.p., 72 h): no | Liver Necrosis (75 mg/kg i.p., 72 h): no | Inflamm. Score [2]: 1 | Necr. Score [2]: 1 | Liver Inflammation (250 mg/kg i.p., 72 h): no | Liver Necrosis (250 mg/kg i.p., 72 h): no | Inflamm. Score [23]: 1 | Necr. Score [23]: 1

CN1CCN(C2=Nc3cc(Cl)ccc3Nc3ccccc32)CC1 [clozapine]
Inflamm. Score [7]: 1 | Necr. Score [7]: 1 | Liver Inflammation (rat, in vivo): no | Liver Necrosis (rat, in vivo): no
